Source: PubChem BioAssay AID1963871 (Molecular Pharmacology Branch, DTP, NCI, 2024)

System: KRAS-mutant PDC multicell tumor spheroid viability
Experiment: Anticancer human tumor 521955-158-R2-J5-PDC patient-derived pancreatic carcinoma cell line growth inhibition [KRAS2]
Settings: for IC50: curve of first compound; for viability, T/C: stronger effect = lower value
Method in brief: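 Combination screen of spheroid viability in tumor-cell co-cultures with endothelial (HUVEC) and mesenchymal stem cell stroma. Each agent was tested in half-log dilutions, topping at clinical Cmax or at 10 microM without a known Cmax.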

[1] = second compound 0.1 µM, first compound 0.0316 µM
[2] = second compound 0.1 µM, first compound 0.1 µM
[3] = second compound 0.1 µM, first compound 0.316 µM
[4] = second compound 0.1 µM, first compound 1 µM
[5] = second compound 0.1 µM, first compound 3.16 µM
[6] = second compound 0.1 µM, first compound 10 µM
[7] = second compound 0.316 µM, first compound 0.0316 µM
[8] = second compound 0.316 µM, first compound 0.1 µM
[9] = second compound 0.316 µM, first compound 0.316 µM
[10] = second compound 0.316 µM, first compound 1 µM
[11] = second compound 0.316 µM, first compound 3.16 µM
[12] = second compound 0.316 µM, first compound 10 µM
[13] = second compound 1 µM, first compound 0.0316 µM
[14] = second compound 1 µM, first compound 0.1 µM
[15] = second compound 1 µM, first compound 0.316 µM
[16] = second compound 1 µM, first compound 1 µM
[17] = second compound 1 µM, first compound 3.16 µM
[18] = second compound 1 µM, first compound 10 µM
[19] = second compound 3.16 µM, first compound 0.0316 µM
[20] = second compound 3.16 µM, first compound 0.1 µM
[21] = second compound 3.16 µM, first compound 0.316 µM
[22] = second compound 3.16 µM, first compound 1 µM
[23] = second compound 3.16 µM, first compound 3.16 µM
[24] = second compound 3.16 µM, first compound 10 µM
[25] = second compound 10 µM, first compound 0.0316 µM
[26] = second compound 10 µM, first compound 0.1 µM
[27] = second compound 10 µM, first compound 0.316 µM
[28] = second compound 10 µM, first compound 1 µM
[29] = second compound 10 µM, first compound 3.16 µM
[30] = second compound 10 µM, first compound 10 µM
[31] = second compound 0.1 µM, first compound 0.000316 µM
[32] = second compound 0.1 µM, first compound 0.001 µM
[33] = second compound 0.1 µM, first compound 0.00316 µM
[34] = second compound 0.1 µM, first compound 0.01 µM
[35] = second compound 0.316 µM, first compound 0.000316 µM
[36] = second compound 0.316 µM, first compound 0.001 µM
[37] = second compound 0.316 µM, first compound 0.00316 µM
[38] = second compound 0.316 µM, first compound 0.01 µM
[39] = second compound 1 µM, first compound 0.000316 µM
[40] = second compound 1 µM, first compound 0.001 µM
[41] = second compound 1 µM, first compound 0.00316 µM
[42] = second compound 1 µM, first compound 0.01 µM
[43] = second compound 3.16 µM, first compound 0.000316 µM
[44] = second compound 3.16 µM, first compound 0.001 µM
[45] = second compound 3.16 µM, first compound 0.00316 µM
[46] = second compound 3.16 µM, first compound 0.01 µM
[47] = second compound 10 µM, first compound 0.000316 µM
[48] = second compound 10 µM, first compound 0.001 µM
[49] = second compound 10 µM, first compound 0.00316 µM
[50] = second compound 10 µM, first compound 0.01 µM
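Note: viability read after seven days of drug exposure.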

Row | Structure (SMILES) | IC50 (second compound 0.1 µM) [nM] | IC50 (second compound 0.316 µM) [nM] | IC50 (second compound 1 µM) [nM] | IC50 (second compound 3.16 µM) [nM] | IC50 (second compound 10 µM) [nM] | viability, T/C [1] [%] | viability, T/C [2] [%] | viability, T/C [3] [%] | viability, T/C [4] [%] | viability, T/C [7] [%] | viability, T/C [8] [%] | viability, T/C [9] [%] | viability, T/C [10] [%] | viability, T/C [13] [%] | viability, T/C [14] [%] | viability, T/C [15] [%] | viability, T/C [19] [%] | viability, T/C [20] [%] | viability, T/C [25] [%] | viability, T/C [26] [%] | also measured
1 | CC(C)NCC(C(=O)N1CCN(c2ncnc3c2C(C)CC3O)CC1)c1ccc(Cl)cc1 (stereo not given) + CNCc1ccccc1-c1csc(C(C)Nc2nc(C)nc3cc(OC)c(OC)cc23)c1 | > 10000 | > 10000 | 4280 | < 31.6 | < 31.6 | 103 | 104 | 83.4 | 77.6 | 101 | 102 | 79.9 | 70.1 | 109 | 98.5 | 75.4 | 1.5 | 1.33 | 0.61 | 1.13 | viability, T/C [5]: 84.1%; viability, T/C [6]: 66.3%; viability, T/C [11]: 67.5%; viability, T/C [12]: 55.9%; viability, T/C [16]: 66.5%; viability, T/C [17]: 58%; viability, T/C [18]: 38.2%; viability, T/C [21]: 1.91%; viability, T/C [22]: 0.59%; viability, T/C [23]: 0.9%; viability, T/C [24]: 0.33%; viability, T/C [27]: 0.73%; viability, T/C [28]: 0.33%; viability, T/C [29]: 2.15%; viability, T/C [30]: 0.33%
2 | CC(C)n1nc(-c2ccc3oc(N)nc3c2)c2c(N)ncnc21 + CNCc1ccccc1-c1csc(C(C)Nc2nc(C)nc3cc(OC)c(OC)cc23)c1 | 7.42 | 9.11 | 6.62 | < 0.316 | < 0.316 | 34.1 | 25.2 | – | – | 30.7 | 23.8 | – | – | 30.9 | 21.6 | – | 1.25 | 0.88 | 0.15 | 0.2 | viability, T/C [31]: 91.2%; viability, T/C [32]: 85.3%; viability, T/C [33]: 61.2%; viability, T/C [34]: 45.8%; viability, T/C [35]: 84%; viability, T/C [36]: 83.2%; viability, T/C [37]: 67.1%; viability, T/C [38]: 49.4%; viability, T/C [39]: 92.5%; viability, T/C [40]: 82.7%; viability, T/C [41]: 62.2%; viability, T/C [42]: 42.1%; viability, T/C [43]: 32.1%; viability, T/C [44]: 43.5%; viability, T/C [45]: 0.4%; viability, T/C [46]: 0.49%; viability, T/C [47]: 0.38%; viability, T/C [48]: 0.15%; viability, T/C [49]: 0.47%; viability, T/C [50]: 0.13%
3 | CC1(C)CCC(CN2CCN(c3ccc(C(=O)NS(=O)(=O)c4ccc(NCC5CCOCC5)c([N+](=O)[O-])c4)c(Oc4cnc5[nH]ccc5c4)c3)CC2)=C(c2ccc(Cl)cc2)C1 + CNCc1ccccc1-c1csc(C(C)Nc2nc(C)nc3cc(OC)c(OC)cc23)c1 | 6160 | 5210 | 4130 | < 31.6 | < 31.6 | 98.8 | 98.8 | 97.2 | 102 | 90.2 | 94.1 | 93.4 | 89.2 | 91.1 | 104 | 103 | 0.76 | 3.72 | 0.3 | 0.27 | viability, T/C [5]: 104%; viability, T/C [6]: 13.4%; viability, T/C [11]: 80.8%; viability, T/C [12]: 9.94%; viability, T/C [16]: 84.5%; viability, T/C [17]: 64.2%; viability, T/C [18]: 5.98%; viability, T/C [21]: 43.5%; viability, T/C [22]: 1.04%; viability, T/C [23]: 1.54%; viability, T/C [24]: 0.73%; viability, T/C [27]: 0.23%; viability, T/C [28]: 0.22%; viability, T/C [29]: 0.67%; viability, T/C [30]: 0.32%
4 | CCN1CCN(Cc2ccc(Nc3ncc(F)c(-c4cc(F)c5nc(C)n(C(C)C)c5c4)n3)nc2)CC1 + CNCc1ccccc1-c1csc(C(C)Nc2nc(C)nc3cc(OC)c(OC)cc23)c1 | > 1000 | > 1000 | 627 | < 3.16 | < 3.16 | 94.4 | 89.5 | 108 | 94.9 | 89.6 | 107 | 103 | 93.4 | 117 | 95.3 | 119 | 0.25 | 0.25 | 0.29 | 0.24 | viability, T/C [33]: 107%; viability, T/C [34]: 97.5%; viability, T/C [37]: 120%; viability, T/C [38]: 108%; viability, T/C [41]: 116%; viability, T/C [42]: 111%; viability, T/C [16]: 7.8%; viability, T/C [45]: 2.02%; viability, T/C [46]: 0.33%; viability, T/C [21]: 0.17%; viability, T/C [22]: 0.6%; viability, T/C [49]: 0.21%; viability, T/C [50]: 0.26%; viability, T/C [27]: 0.21%; viability, T/C [28]: 0.26%
5 | COc1cc2nccc(Oc3ccc(NC(=O)C4(C(=O)Nc5ccc(F)cc5)CC4)cc3)c2cc1OC + CNCc1ccccc1-c1csc(C(C)Nc2nc(C)nc3cc(OC)c(OC)cc23)c1 | 6770 | 6200 | 3700 | < 31.6 | < 31.6 | 92.7 | 94.2 | 94.5 | 92.2 | 94.6 | 101 | 95.9 | 115 | 98.8 | 99.9 | 114 | 0.62 | 0.34 | 0.2 | 0.12 | viability, T/C [5]: 70.7%; viability, T/C [6]: 39.4%; viability, T/C [11]: 75.7%; viability, T/C [12]: 31.9%; viability, T/C [16]: 99.6%; viability, T/C [17]: 57.7%; viability, T/C [18]: 2.02%; viability, T/C [21]: 0.41%; viability, T/C [22]: 0.52%; viability, T/C [23]: 0.39%; viability, T/C [24]: 0.4%; viability, T/C [27]: 0.63%; viability, T/C [28]: 0.12%; viability, T/C [29]: 0.23%; viability, T/C [30]: 0.19%
6 | Cn1ncnc1[C@H]1c2n[nH]c(=O)c3cc(F)cc(c23)N[C@@H]1c1ccc(F)cc1 + CNCc1ccccc1-c1csc(C(C)Nc2nc(C)nc3cc(OC)c(OC)cc23)c1 | > 100 | > 100 | > 100 | < 0.316 | < 0.316 | 81.7 | 81 | – | – | 81.8 | 80.3 | – | – | 91.5 | 89.6 | – | 0.7 | 0.26 | 0.16 | 1.36 | viability, T/C [31]: 101%; viability, T/C [32]: 94.8%; viability, T/C [33]: 84.5%; viability, T/C [34]: 80.2%; viability, T/C [35]: 104%; viability, T/C [36]: 81.2%; viability, T/C [37]: 82.1%; viability, T/C [38]: 76.7%; viability, T/C [39]: 114%; viability, T/C [40]: 119%; viability, T/C [41]: 112%; viability, T/C [42]: 93.8%; viability, T/C [43]: 2.53%; viability, T/C [44]: 1.22%; viability, T/C [45]: 2.97%; viability, T/C [46]: 1.01%; viability, T/C [47]: 0.78%; viability, T/C [48]: 0.71%; viability, T/C [49]: 0.43%; viability, T/C [50]: 0.21%
